Assay results reported in US8110565B2, “Enhanced drug delivery in transdermal systems” (Noven Pharmaceuticals, Inc., priority 2001, dated 2012).
Each block holds one compound with its values, some of them ahead of it.

What was measured:
[1] = Flux of ramipril, its ester prodrugs and their combinations from carrier formulations (FIGS. 8, 9); type: in vitro ADME
From the text: (§1) Prodrug effects on flux were also studied using an ace inhibitor drug, ramipril. Flux rates of two corresponding prodrugs—ramipril methyl ester and ramipril ethyl ester—were compared prior to combining with the parent drug. […] In either event, the use of an ester prodrug in place of the parent drug can achieve, at the very least, over a 10 fold increase in flux (see ramipril flux (▴) in FIG. 8—only 15% ramipril could be solubilized without forming crystals—versus ramipril ethyl ester flux without enhancers (Δ) in FIG. 9). Use of non-functional or hydroxy functional adhesives are also preferred. However, when both ramipril and a corresponding prodrug are combined in the formulations containing enhancers, an even higher flux can be obtained.

[2] = Amount of ramipril solubilized in the carrier formulation without forming crystals; type: physicochemical
From the text: as §1, with “preferred.” for “preferred. However, when both ramipril and a corresponding prodrug are combined in the formulations containing enhancers, an even higher flux can be obtained.”

increase in flux over the parent drug ramipril ([1]; ester without enhancers (FIG. 9) versus 15% ramipril (FIG. 8)): > 10 fold
Structure (SMILES): CCOC(=O)C(CCc1ccccc1)NC(C)C(=O)N1C(C(=O)OCC)CC2CCCC21 (stereo not shown) [ramipril ethyl ester]

flux compared with the ethyl ester derivative [1]: fluxed higher
flux higher than the ethyl ester prodrug ([1]; without permeation enhancers, 20% drug, 20% polyacrylate adhesive, 60% polysiloxane adhesive, FIG. 9): 73%
Structure (SMILES): CCOC(=O)[C@H](CCc1ccccc1)N[C@@H](C)C(=O)N1[C@H](C(=O)OC)C[C@@H]2CCC[C@@H]21 [ramipril methyl ester]

ramipril that could be solubilized without forming crystals [2]: 15%
Structure (SMILES): CCOC(=O)[C@H](CCc1ccccc1)N[C@@H](C)C(=O)N1[C@H](C(=O)O)C[C@@H]2CCC[C@@H]21 [ramipril]
